Consider two molecules from patent US20220283177A1, “METHOD FOR DETECTING INTERACTION AND AFFINITY BETWEEN LIGAND AND PROTEIN” (DALIAN INSTITUTE OF CHEMICAL PHYSICS, CHINESE ACADEMY OF …, priority 2019, published 2022).

For data set [1], the target named is T1, CDK9 (Homo sapiens, UniProt P50750). Description: CA-based SIP, western blotting, SNS-032. Type of data set: binding. Conditions: 100 μM SNS-032, 293T cell lysate, CA gradient. The text has this:
The procedure of western blotting was as same as Sample 1.
In general terms: Immunoblotting shows a protein as a band on a membrane.

Data set [2] addresses T1, CDK9. Description: Solvent mixture (A.E.A.)-based SIP, western blotting, SNS-032. As to conditions: 100 μM SNS-032, 293T cell lysate, high percentage of A.E.A.
Text: (§1) One portion of the supernatants was used for western blotting analysis and the left portion was used for MS-based quantification.
In another data set the target is GSK-3a (Homo sapiens, UniProt P49840). The experiment in a line: Solvent mixture (A.E.A.)-based SIP, quantitative proteomics, SNS-032. Conditions: 100 μM SNS-032, 293T cell lysate, 13% A.E.A. (FIG. 2F).
Chain of GSK-3a (P49840 whole entry): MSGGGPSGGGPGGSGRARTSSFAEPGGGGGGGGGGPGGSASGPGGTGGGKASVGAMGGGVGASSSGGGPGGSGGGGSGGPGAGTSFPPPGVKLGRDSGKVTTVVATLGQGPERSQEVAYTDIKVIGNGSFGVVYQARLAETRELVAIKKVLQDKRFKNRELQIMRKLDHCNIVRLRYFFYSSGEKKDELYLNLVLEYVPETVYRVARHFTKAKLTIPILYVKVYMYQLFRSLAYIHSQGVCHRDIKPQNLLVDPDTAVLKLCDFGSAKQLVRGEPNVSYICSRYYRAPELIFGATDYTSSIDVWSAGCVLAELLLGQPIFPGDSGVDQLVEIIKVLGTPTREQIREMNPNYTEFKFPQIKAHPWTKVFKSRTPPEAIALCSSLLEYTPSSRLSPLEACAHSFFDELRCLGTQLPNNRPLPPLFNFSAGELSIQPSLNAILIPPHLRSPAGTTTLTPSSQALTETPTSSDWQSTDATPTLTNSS
The next data set deals with NDUFV1 (Homo sapiens, UniProt P49821). The experiment in a line: Affinity evaluation by solvent mixture-based SIP dose response (western blotting).
Chain of NDUFV1 (P49821 21-464): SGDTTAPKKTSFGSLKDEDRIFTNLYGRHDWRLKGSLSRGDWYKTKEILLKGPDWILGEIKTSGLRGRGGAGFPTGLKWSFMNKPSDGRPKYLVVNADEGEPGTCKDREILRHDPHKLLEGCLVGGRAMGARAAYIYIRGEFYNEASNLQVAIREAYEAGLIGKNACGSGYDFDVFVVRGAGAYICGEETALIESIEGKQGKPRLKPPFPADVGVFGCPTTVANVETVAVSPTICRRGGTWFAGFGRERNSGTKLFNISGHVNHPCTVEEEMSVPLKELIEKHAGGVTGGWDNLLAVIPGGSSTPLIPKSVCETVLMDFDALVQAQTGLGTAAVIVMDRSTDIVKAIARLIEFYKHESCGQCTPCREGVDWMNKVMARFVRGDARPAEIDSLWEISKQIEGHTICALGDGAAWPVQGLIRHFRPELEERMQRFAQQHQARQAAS
For data set [3] the following is noted: withdrawn from clinical trials; cited from earlier work.

pEC50: −log10 of the molar value.

T1 sequence (P50750 whole entry): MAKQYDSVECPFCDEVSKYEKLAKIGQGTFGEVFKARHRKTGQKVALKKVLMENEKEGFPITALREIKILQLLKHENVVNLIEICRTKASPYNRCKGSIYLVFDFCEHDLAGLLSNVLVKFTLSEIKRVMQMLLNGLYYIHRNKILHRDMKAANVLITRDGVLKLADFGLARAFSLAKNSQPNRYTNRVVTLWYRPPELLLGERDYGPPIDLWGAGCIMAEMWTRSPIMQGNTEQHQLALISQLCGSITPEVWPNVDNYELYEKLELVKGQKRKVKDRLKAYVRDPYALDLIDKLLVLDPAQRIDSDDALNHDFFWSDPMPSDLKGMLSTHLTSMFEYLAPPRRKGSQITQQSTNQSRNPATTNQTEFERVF
T1 sequence (O60563 whole entry partner): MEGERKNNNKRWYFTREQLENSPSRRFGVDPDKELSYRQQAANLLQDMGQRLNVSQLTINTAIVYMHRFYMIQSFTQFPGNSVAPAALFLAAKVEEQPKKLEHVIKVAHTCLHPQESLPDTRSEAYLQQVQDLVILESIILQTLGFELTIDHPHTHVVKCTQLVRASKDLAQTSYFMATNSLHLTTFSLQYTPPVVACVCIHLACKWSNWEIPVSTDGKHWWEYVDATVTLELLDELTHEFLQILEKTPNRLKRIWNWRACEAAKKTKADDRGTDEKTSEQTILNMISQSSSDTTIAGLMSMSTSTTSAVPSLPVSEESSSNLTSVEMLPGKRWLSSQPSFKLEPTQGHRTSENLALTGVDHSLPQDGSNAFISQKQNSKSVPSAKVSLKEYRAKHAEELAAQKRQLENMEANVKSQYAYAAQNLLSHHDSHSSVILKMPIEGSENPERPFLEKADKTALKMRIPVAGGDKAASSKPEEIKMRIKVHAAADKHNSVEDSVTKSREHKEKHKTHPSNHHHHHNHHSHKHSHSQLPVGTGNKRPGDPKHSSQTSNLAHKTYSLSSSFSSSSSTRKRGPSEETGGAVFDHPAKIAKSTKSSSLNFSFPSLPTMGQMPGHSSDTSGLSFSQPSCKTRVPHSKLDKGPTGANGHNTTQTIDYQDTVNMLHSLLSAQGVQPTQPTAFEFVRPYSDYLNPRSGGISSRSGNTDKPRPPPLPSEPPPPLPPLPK
Text for GSK-3a: as §1
Text for NDUFV1: The calculation equation: Y=min+(max−min)/(1+10^((Log EC50−X)*Hill Slope)), Y is the protein abundance, X is the different drug concentrations, min and max are the minimum and maximum values of the corresponding protein abundance on the Y axis, respectively. Hill Slope is the absolute value of the maximum slope of the curve (i.e., the midpoint of the curve).

`CC(C)(C)c1cnc(CSc2cnc(NC(=O)C3CCNCC3)s2)o1` [SNS-032]: the “abundance of CDK9 by western blotting” value at CDK9 [1] is on record as “higher as compared with that in the control group”. For the same molecule, on CDK9 [2], the “stabilization of CDK9 by western blotting” value is listed as “significant stabilization shifts”. Further, the “average log 2 FC (H/L normalization ratio) of GSK-3a” value at GSK-3a stood at 1.13.
In the case of `COC1=C2C[C@@H](C)C[C@H](OC)[C@H](O)[C@@H](C)/C=C(\C)[C@H](OC(N)=O)[C@@H](OC)/C=C\C=C(/C)C(=O)NC(=CC1=O)C2=O` [geldanamycin], at NDUFV1, the pEC50 (in general, the EC50 on a negative log10 scale, so that one unit is a factor of ten) was 4.00 to 5.00. Further, in data set [3], the “side effects in clinical trials” value is on record as “severe hepatotoxicity”.
